Experimental data: US20130287807A1, “COMPOUNDS FOR TREATING SYMPTOMS ASSOCIATED WITH PARKINSON'S DISEASE” (priority 2008, published 2013)
Values belong to the molecule of their own block, whether it stands above or below them. Ends that are not written are not given here.

Tests used:
[1] = tested on: monoclonal antibody MV-002; assay: In vitro binding assay (ELISA), BSA-coupled peptides, parental antibody MV-002; set-up: species or system C57/B16 mice; settings: Table 1 (MV-002); peptide-BSA on plate, compared to original epitope
Method: Peptides derived from Phage Display as well as variants thereof were coupled to BSA and bound to ELISA plates (1 μM; as indicated in the respective figures) and subsequently incubated with the monoclonal antibody that was used for the screening procedure to analyse binding capacity of identified peptides.
Legend to Table 1: the binding capacity is coded by the following binding code: 1:X describes the dilution factor of the parental AB. Ac- . . . indicates acetylated AA.

[2] = tested on: monoclonal antibody (DAEFRH-peptide-specific); assay: Inhibition assay (ELISA): mimotope peptides compete with plate-bound original epitope DAEFRH for recognition by the monoclonal antibody; assay type: binding, Mice; set-up: key to inhibition (s/m/—): s: strong inhibition; m: moderate inhibition; —: -: no inhibition; settings: for inhibition of binding of the monoclonal antibody to the original epitope: competition ELISA, plate-bound DAEFRH-C-BSA, text to FIGS. 2-9; for Inhibitory capacity of mimotopes: summary Tables 1 and 2 (Examples 2, 3); for inhibition (s/m/—): peptide lists of Example 4
From the text: Mice are vaccinated with the 6mer peptide DAEFRH (natural N-terminal Aβ42 sequence) linked to the protein bovine serum albumin BSA (to make use of the hapten-carrier-effect), emulsified in CFA (first injection) and IFA (booster injections). DAEFRH-peptide-specific, antibody-producing hybridomas are detected by ELISA (DAEFRH-peptide-coated ELISA plates).
FIGS. 2 and 3 describe the results of inhibition assays performed with mimotope peptides included in and obtained from the 5 libraries (as described in WO 2004/062556). The mimotope peptides compete with the original epitope for recognition by the monoclonal antibody. Original epitope and mimotope peptides contain an additional C at the C-terminus for coupling to a protein carrier (if desired).
(§1) After blocking with PBS/BSA 1% (200 μl/well, 12 h, 4° C.), the plates are washed 3× times with PBS/Tween. Then, biotinylated monoclonal antibody (1:2000, 50 μl/well) and peptides (50 μl/well) at 50, 5, 0.5, 0.05, 0.005, and 0.0005 μg/ml are added for 20 min. at 37° C. The plates are washed 3× times with PBS/Tween and are incubated with horseradish peroxidase (HRP)-labeled streptavidin (100 μl/well, 30 min, RT). The plates are washed 5× times with PBS/Tween and are incubated with ABTS+H2O2(0.1% w/v, 10 to 45 min) and the reaction is stopped with citric acid followed by photometric evaluation (wavelength 405 nm).
as §1, with “different concentrations” for “50, 5, 0.5, 0.05, 0.005, and 0.0005 μg/ml”, “ABTS+H2O2 (0.1%” for “ABTS+H2O2(0.1%”
as §1, with “different concentrations” for “50, 5, 0.5, 0.05, 0.005, and 0.0005 μg/ml”

[3] = target: monoclonal antibody MV-001; assay: ELISA on peptide-BSA; code 3 = strong binding, OD halfmax 1:>20000
[4] = target: monoclonal antibody MV-001; assay: ELISA on peptide-BSA; code 2 = medium binding, OD halfmax 1:4000-20000

Binding Capacity [1]: 3 (strong binding :>320000)
Molecule: GELQFPPC [p4672]

Binding Capacity [1]: 3 (strong binding :>320000)
Molecule: GELYFRAC [p4677]

Binding Capacity [1]: 2 (medium binding :40000-320000)
Molecule: GQIIFQSC [p4668]

Binding Capacity [1]: 1 (weak binding :<40000)
Molecule: AGEIYFERC [p4806]

Binding Capacity [1]: 2 (medium binding :40000-320000)
Molecule: GELFFEKC [p4795]

Binding Capacity [1]: 1 (weak binding :<40000)
Molecule: AIPLFVMC [p4682]

Binding Capacity [1]: 1 (weak binding :<40000)
Molecule: GTIFFRDC [p4692]

Binding Capacity [1]: 3 (strong binding :>320000)
Molecule: GQIMFPRC [p4686]

Binding Capacity [1]: 3 (strong binding :>320000)
Molecule: GQILFPVC [p4684]

Binding Capacity [1]: 1 (weak binding :<40000)
Molecule: QLPLFVLC [p4700]

Binding Capacity [1]: 3 (strong binding :>320000)
Molecule: GEIRFALC [p4678]

Binding Capacity [1]: 3 (strong binding :>320000)
Molecule: GELFFPKC [p4685]

Binding Capacity [1]: 1 (weak binding :<40000)
Molecule: GQIWFISC [p4666]

Binding Capacity [1]: 3 (strong binding :>320000)
Molecule: GQIKFAQC [p4694]

Binding Capacity [1]: 3 (strong binding :>320000)
Molecule: GQIQFPLC [p4697]

Binding Capacity [1]: 2 (medium binding :40000-320000)
Molecule: Ac-GEIYFERC [p4804]

Binding Capacity [1]: 3 (strong binding :>320000)
Molecule: GEMWFALC [p4671]

Binding Capacity [1]: 3 (strong binding :>320000)
Molecule: GMIVFPHC [p4679]

Binding Capacity [1]: 3 (strong binding :>320000)
Molecule: GQLKFPFC [p4690]

Binding Capacity [1]: 2 (medium binding :40000-320000)
Molecule: GTLIFHHC [p4695]

Binding Capacity [1]: 2 (medium binding :40000-320000)
Molecule: GEIRFELC [p4796]

Binding Capacity [1]: 3 (strong binding :>320000)
Molecule: GDLKFPLC [p4683]

Binding Capacity [1]: 3 (strong binding :>320000)
Molecule: HMRMYFEC [p4687]

Binding Capacity [1]: 3 (strong binding :>320000)
Molecule: GEMQFFIC [p4676]

Binding Capacity [1]: 3 (strong binding :>320000)
Molecule: GQIRFDHC [p4669]

Binding Capacity [1]: 1 (weak binding :<40000)
Molecule: CGEIYFER [p4807]

Binding Capacity [1]: 2 (medium binding :40000-320000)
Molecule: GSLFFWPC [p4688]

inhibition of binding of the monoclonal antibody to the original epitope [2]: can successfully compete
Molecule: DAEFRH (DAEFRHC) [Peptide 1737, reference compound]

inhibition of binding of the monoclonal antibody to the original epitope [2]: not able to inhibit
Molecule: WHWSWR (WHWSWRC) [Peptide 4004]
Inhibitory capacity of mimotopes [2]: none

inhibition of binding of the monoclonal antibody to the original epitope [2]: strongly block epitope recognition
Molecule: SWEFRLY [Peptide 4018]
inhibition (s/m/—) [2]: s

Binding Capacity [1]: 1 (weak binding :<40000)
Molecule: KLPLFVMC [p4691]

Binding Capacity [1]: 1 (weak binding :<40000)
Molecule: SGEIYFERC [p4805]

inhibition of binding of the monoclonal antibody to the original epitope [2]: strongly block epitope recognition
Molecule: SAEFRAT [Peptide 4016]
inhibition (s/m/—) [2]: s

Molecule: N=C(N)NCCC[C@H](NC(=O)[C@H](Cc1ccccc1)NC(=O)[C@H](CCC(=O)O)NC(=O)[C@H](Cc1ccccc1)NC(=O)[C@@H](N)CO)C(=O)NCC(=O)N[C@@H](CS)C(=O)O [Peptide 3009, SFEFRG]
Inhibitory capacity of mimotopes [2]: weak

inhibition of binding of the monoclonal antibody to the original epitope [2]: strongly block epitope recognition
Molecule: DAEFRWP [Peptide 4011]
inhibition (s/m/—) [2]: s

inhibition of binding of the monoclonal antibody to the original epitope [2]: moderately inhibit
Molecule: GSEFRDY [Peptide 4013]
inhibition (s/m/—) [2]: m

OD halfmax 1:X (dilution factor of the parental antibody at half-maximal OD) (dilutionfactor(1:x)) [3]: > 20000
B1: p4755 (peptide)
peptide: SQSYFKHC

OD halfmax 1:X (dilution factor of the parental antibody at half-maximal OD) (dilutionfactor(1:x)) [3]: > 20000
B2: p4744 (peptide)
peptide: SELRHSTC

OD halfmax 1:X (dilution factor of the parental antibody at half-maximal OD) (dilutionfactor(1:x)) [4]: 4000 to 20000
B3: p4705 (peptide)
peptide: YSMRHDAC

OD halfmax 1:X (dilution factor of the parental antibody at half-maximal OD) (dilutionfactor(1:x)) [3]: > 20000
B4: p4747 (peptide)
peptide: QLFKHSPC

OD halfmax 1:X (dilution factor of the parental antibody at half-maximal OD) (dilutionfactor(1:x)) [4]: 4000 to 20000
B5: p4717 (peptide)
peptide: APMYFPHC

OD halfmax 1:X (dilution factor of the parental antibody at half-maximal OD) (dilutionfactor(1:x)) [4]: 4000 to 20000
B6: p4704 (peptide)
peptide: VELRHSRC

OD halfmax 1:X (dilution factor of the parental antibody at half-maximal OD) (dilutionfactor(1:x)) [4]: 4000 to 20000
B7: p4718 (peptide)
peptide: TYFSHSLC

OD halfmax 1:X (dilution factor of the parental antibody at half-maximal OD) (dilutionfactor(1:x)) [3]: > 20000
B8: p4748 (peptide)
peptide: YEFRHAQC

OD halfmax 1:X (dilution factor of the parental antibody at half-maximal OD) (dilutionfactor(1:x)) [3]: > 20000
B9: p4750 (peptide)
peptide: APIQFRHC

OD halfmax 1:X (dilution factor of the parental antibody at half-maximal OD) (dilutionfactor(1:x)) [3]: > 20000
B10: p4702 (peptide)
peptide: GEMRHQPC

OD halfmax 1:X (dilution factor of the parental antibody at half-maximal OD) (dilutionfactor(1:x)) [3]: > 20000
B11: p4752 (peptide)
peptide: NSSELRHC

OD halfmax 1:X (dilution factor of the parental antibody at half-maximal OD) (dilutionfactor(1:x)) [4]: 4000 to 20000
B12: p4711 (peptide)
peptide: QVMRHHAC

OD halfmax 1:X (dilution factor of the parental antibody at half-maximal OD) (dilutionfactor(1:x)) [3]: > 20000
B13: p4714 (peptide)
peptide: ELFKHHLC

OD halfmax 1:X (dilution factor of the parental antibody at half-maximal OD) (dilutionfactor(1:x)) [3]: > 20000
B14: p4749 (peptide)
peptide: SNFRHSVC

OD halfmax 1:X (dilution factor of the parental antibody at half-maximal OD) (dilutionfactor(1:x)) [3]: > 20000
B15: p4743 (peptide)
peptide: SNSEFRRC

OD halfmax 1:X (dilution factor of the parental antibody at half-maximal OD) (dilutionfactor(1:x)) [4]: 4000 to 20000
B16: p4706 (peptide)
peptide: AANYFPRC

OD halfmax 1:X (dilution factor of the parental antibody at half-maximal OD) (dilutionfactor(1:x)) [3]: > 20000
B17: p4726 (peptide)
peptide: LHIPFRHC

OD halfmax 1:X (dilution factor of the parental antibody at half-maximal OD) (dilutionfactor(1:x)) [4]: 4000 to 20000
B18: p4708 (peptide)
peptide: SSSFFPRC

OD halfmax 1:X (dilution factor of the parental antibody at half-maximal OD) (dilutionfactor(1:x)) [3]: > 20000
B19: p4712 (peptide)
peptide: SEFSHSSC

OD halfmax 1:X (dilution factor of the parental antibody at half-maximal OD) (dilutionfactor(1:x)) [4]: 4000 to 20000
B20: p4703 (peptide)
peptide: DTYFPRSC

OD halfmax 1:X (dilution factor of the parental antibody at half-maximal OD) (dilutionfactor(1:x)) [3]: > 20000
B21: p4710 (peptide)
peptide: SAGSFRHC

OD halfmax 1:X (dilution factor of the parental antibody at half-maximal OD) (dilutionfactor(1:x)) [3]: > 20000
B22: p4722 (peptide)
peptide: EFLRHTLC

OD halfmax 1:X (dilution factor of the parental antibody at half-maximal OD) (dilutionfactor(1:x)) [3]: > 20000
B23: p4723 (peptide)
peptide: ATPLFRHC

OD halfmax 1:X (dilution factor of the parental antibody at half-maximal OD) (dilutionfactor(1:x)) [3]: > 20000
B24: p4745 (peptide)
peptide: THMEFRRC

OD halfmax 1:X (dilution factor of the parental antibody at half-maximal OD) (dilutionfactor(1:x)) [3]: > 20000
B25: p4701 (peptide)
peptide: NELRHSTC

OD halfmax 1:X (dilution factor of the parental antibody at half-maximal OD) (dilutionfactor(1:x)) [4]: 4000 to 20000
B26: p4716 (peptide)
peptide: ATFRHSPC
